Earlier results, collected in patent US20100076037A1, “Methods of Treating Neuropathic Pain with Agonists of PPAR-gamma” (priority 2006, published 2010).
Where two headings read alike, the source gives them in different places.

How the values were obtained:
[1] = cited from earlier work
[2] = presence and absence of insulin; cited from earlier work
[3] = system: db/db mice; conditions: cited from earlier work
[4] = system: ob/ob mice; conditions: cited from earlier work
[5] = target: mPPARalpha (Mus musculus, UniProt P23204); conditions: read-out: EC50 reporter gene assay, U2 OS cells; cited from earlier work
[6] = system: ob/ob mice; conditions: cited from earlier work; remark: listed apart in the source
[7] = system: arterial smooth muscle cells (SMCs); conditions: 5 or 10 microM; cited from earlier work
[8] = system: cytochrome P450 (CYP)4A; conditions: 0.13 microg/kg; cited from earlier work
[9] = system: apoE*3 Leiden transgenic mice; conditions: cited from earlier work
[10] = system: recombinant human CYPs (CYP1A2, CYP2A6, CYP2C8, CYP2C9, CYP2C19, CYP2D6 and CYP3A4); conditions: 0.09 to 200 microM; cited from earlier work
[11] = cited from earlier work; remark: listed apart in the source
[12] = system: human apoB/CETP double-transgenic mouse; conditions: tesaglitazar 1 microM/kg/day for 2 weeks; cited from earlier work
[13] = system: diabetic patients; conditions: human, in vivo; cited from earlier work
[14] = system: non-diabetic but insulin-resistant patients; conditions: cited from earlier work; for reduction of prevalence of metabolic syndrome: NCEP ATPIII criteria
[15] = 1 mg, cited from earlier work
[16] = healthy males; cited from earlier work
[17] = target: T1, P-glycoprotein (Homo sapiens, UniProt P08183); conditions: cited from earlier work
T1 construct: host or cells: Caco2 and MDCK-MDR1 monolayers (tie to the P-gp statement is grammatically loose)

[18] = system: multidrug resistance protein 2; conditions: cited from earlier work
[19] = system: obese Zucker rats; conditions: cited from earlier work
[20] = system: PPARalpha target protein; conditions: HepG2; cited from earlier work
[21] = system: type 2 diabetic patients; conditions: cited from earlier work; for decrease of mean fasting plasma glucose, placebo-corrected: 12 weeks
[22] = system: human macrophages; conditions: 5 microM; cells exposed to high fatty acids and TGs; cited from earlier work
[23] = system: high-fat-fed Wistar rats; conditions: cited from earlier work
[24] = dose for 25% reduction in fasting plasma glucose, insulin and serum TG

Sequence of mPPARalpha (P23204 whole entry): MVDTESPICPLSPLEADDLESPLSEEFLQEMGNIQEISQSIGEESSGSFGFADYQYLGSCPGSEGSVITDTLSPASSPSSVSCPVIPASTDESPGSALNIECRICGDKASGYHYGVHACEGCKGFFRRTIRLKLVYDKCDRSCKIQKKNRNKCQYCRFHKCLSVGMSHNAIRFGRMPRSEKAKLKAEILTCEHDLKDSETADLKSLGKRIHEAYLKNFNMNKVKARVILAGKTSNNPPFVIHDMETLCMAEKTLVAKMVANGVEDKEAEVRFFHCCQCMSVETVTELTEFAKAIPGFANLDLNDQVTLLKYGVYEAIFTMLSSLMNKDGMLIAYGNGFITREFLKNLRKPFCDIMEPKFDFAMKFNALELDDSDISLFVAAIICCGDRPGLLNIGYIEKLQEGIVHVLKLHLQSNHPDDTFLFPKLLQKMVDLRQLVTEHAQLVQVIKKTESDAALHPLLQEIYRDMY
T1 sequence (P08183 whole entry): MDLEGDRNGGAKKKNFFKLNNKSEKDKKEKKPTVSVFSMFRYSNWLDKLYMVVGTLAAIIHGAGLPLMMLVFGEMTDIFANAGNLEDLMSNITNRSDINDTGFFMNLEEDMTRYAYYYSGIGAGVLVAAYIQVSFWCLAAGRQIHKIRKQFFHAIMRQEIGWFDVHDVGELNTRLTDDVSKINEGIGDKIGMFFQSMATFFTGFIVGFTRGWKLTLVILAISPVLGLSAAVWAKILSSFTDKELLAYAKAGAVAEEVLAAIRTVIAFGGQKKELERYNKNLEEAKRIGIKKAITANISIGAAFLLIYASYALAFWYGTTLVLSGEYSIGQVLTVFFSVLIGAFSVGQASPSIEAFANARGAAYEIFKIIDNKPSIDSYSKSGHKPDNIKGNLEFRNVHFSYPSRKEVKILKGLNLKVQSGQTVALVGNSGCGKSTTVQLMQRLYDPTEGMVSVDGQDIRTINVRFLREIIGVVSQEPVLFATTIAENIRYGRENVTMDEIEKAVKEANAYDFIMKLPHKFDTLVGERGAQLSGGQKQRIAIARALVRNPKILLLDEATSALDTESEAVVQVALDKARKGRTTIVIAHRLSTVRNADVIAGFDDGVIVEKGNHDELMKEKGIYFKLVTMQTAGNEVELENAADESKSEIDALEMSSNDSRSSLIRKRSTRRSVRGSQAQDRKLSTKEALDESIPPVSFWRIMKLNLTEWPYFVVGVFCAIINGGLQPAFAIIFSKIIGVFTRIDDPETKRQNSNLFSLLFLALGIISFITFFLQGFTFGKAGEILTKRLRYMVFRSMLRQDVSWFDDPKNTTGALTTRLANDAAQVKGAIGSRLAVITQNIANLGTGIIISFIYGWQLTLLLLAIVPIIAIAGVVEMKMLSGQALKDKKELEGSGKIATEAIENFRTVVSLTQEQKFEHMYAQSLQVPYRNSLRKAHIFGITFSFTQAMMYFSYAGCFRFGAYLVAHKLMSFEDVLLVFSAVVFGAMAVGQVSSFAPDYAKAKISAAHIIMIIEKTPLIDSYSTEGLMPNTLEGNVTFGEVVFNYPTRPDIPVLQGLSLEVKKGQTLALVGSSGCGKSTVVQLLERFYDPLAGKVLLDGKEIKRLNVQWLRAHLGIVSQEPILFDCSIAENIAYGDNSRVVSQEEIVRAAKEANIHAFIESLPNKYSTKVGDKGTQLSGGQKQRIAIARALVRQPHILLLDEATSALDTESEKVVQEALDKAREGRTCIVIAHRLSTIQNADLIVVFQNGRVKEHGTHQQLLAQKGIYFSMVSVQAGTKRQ

In the case of Cc1oc(-c2ccccc2)nc1CCOc1ccc(CC2SC(=O)NC2=O)c2sccc12 (centres unmarked) [edaglitazone], the accumulation ([1]; once-daily dosing over 6 weeks) is listed as “did not accumulate”, the tolerability ([1]; single ascending dose) is listed as “very well tolerated” and the “time to plasma peak levels after dosing” value ([1]; single doses 1-160 mg, healthy males) is listed as 2 to 4 h. The “rate of glucose oxidation” value [2] was “increased”, the “lowering of free fatty acid levels” value ([3]; 1 mg/kg) was 16% and the “reduction in serum triglyceride levels” value ([3]; 1 mg/kg) was 14%. The “lowering of free fatty acid levels” value ([3]; 10 mg/kg) was 70%, the “reduction in serum triglyceride levels” value ([3]; 10-mg·kg dose) was 70% and the “lowering of non-starved blood glucose” value ([3]; 25-mg dose, 12 days) was 52%. The hypoglycemia ([3]; chronic treatment with 100 mg/kg) was “did not result in hypoglycemia”, the “reduction of AUC(glucose)” value ([4]; 1 mg/kg, 14 days) was 44% and the “reduction in non-starved blood glucose concentration” value ([4]; 0.25 to 10 mg/kg, 12 days) was 29%. For the same molecule, the serum insulin levels ([4]; all doses) was “dose-dependently decreased” and the “reduction in non-starved blood glucose concentration” value ([4]; higher doses) was 45%.

For CCO[C@@H](Cc1ccc(OCCc2ccc(OS(C)(=O)=O)cc2)cc1)C(=O)O [tesaglitazar, (S)-2-ethoxy-3-[4-(2-{4-methanesulfonyloxyphenyl}ethoxy)phenyl]propanoic acid], the EC50 [5] is listed as 32 µM, the hyperglycemia ([6]; 1 micromol/kg/day for 1 week) is listed as “normalized” and the “potency relative to pioglitazone” value [6, 24] is listed as 250 fold. The “potency relative to rosiglitazone” value [6, 24] was 7 fold, the “decrease of affinity of human LDL for unbound GAGs” value [7] was 3- to 4 fold and the “linoleate-induced production of LDL-binding GAGs” value [7] was “abolished”. For the same molecule, the “upregulation of CYP4A relative to controls” value [8] was 15 fold, the “reduction of plasma cholesterol levels” value ([9]; 0.5 microg/kg of diet, low- or high-fat diets) was “approximately 21.5%” and the “reduction of TG levels” value ([9]; 0.5 microg/kg of diet) was “approximately 40%”. The “reduction of cross-sectional area of atheromic lesions in the aortic root” value ([9]; high-fat fed, 28 weeks) was 92%, the “reduction of cross-sectional area of atheromic lesions in the aortic root” value ([9]; low-fat fed, 16 weeks) was 65% and the “effect on activity of CYP drug metabolizing enzymes” value [10] was “no effect”. The AUC ([11]; 1 mg intravenous) was 16.2 micromolxh/l, the AUC ([11]; 1 mg oral) was 16.1 micromolxh/l and the adverse events ([11]; 1 mg po or iv, healthy volunteers) was “no serious adverse events”. The oral bioavailability ([11]; 1 mg) was ~100%, the “clearance (Cl)” value ([11]; in vivo) was 0.16 L/h and the elimination half-life ([11]; in vivo) was ~45 h. The protein-bound ([11]; in vivo) was 99.9%, the “volume of distribution at steady state (Vdss)” value ([11]; in vivo) was 9.1 L and the Cmax ([11]; single 1-mg oral dose) was 610 nM. The “median Tmax” value ([11]; single 1-mg oral dose) was ~0.5 h, the “plasma TGs, apoB100 and plasma CETP activity” value [12] was “reduced” and the rates of edema [13] was 4.2 to 6.8%. The “mean increase in serum creatinine” value ([14]; 0.1 mg) was 1 µmol/L, the “patients with adverse events” value ([14]; 0.1 mg) was 65% and the “reduction in mean hemoglobin level” value ([14]; 0.1 mg) was 0.16 mmol/L. The “patients with adverse events” value ([14]; 0.25 mg) was 51%, the “reduction of prevalence of metabolic syndrome” value ([14]; 0.5 mg) was 49% and the “fall in prevalence of impaired fasting glucose” value ([14]; 0.5 mg) was 23%. The “patients with adverse events” value ([14]; 0.5 mg) was 67%, the “mean reduction in fasting serum TGs, placebo-corrected” value ([14]; 1 mg, 12 weeks) was 37% and the “reduction of prevalence of metabolic syndrome” value ([14]; 1.0 mg) was 45%. The “reduction of AUC for plasma free fatty acids” value ([14]; 1 mg, after lipid-rich meal) was 29%, the “reduction of AUC for plasma insulin” value ([14]; 1 mg, after lipid-rich meal) was 31% and the “reduction of AUC for serum TGs” value ([14]; 1 mg, after lipid-rich meal) was 41%. For the same molecule, the “reduction of AUC for serum glycerol” value ([14]; 1 mg, after lipid-rich meal) was 34%, the “reduction of plasma glucose level at 2 h” value ([14]; 1 mg, after lipid-rich meal) was 27% and the “increase in serum HDL-cholesterol” value ([14]; 1 mg) was 16%. For the same molecule, the “mean reduction in fasting insulin” value ([14]; 1 mg) was 35%, the “mean reduction in non-HDL-cholesterol” value ([14]; 1 mg) was 15% and the “mean reduction in non-esterified fatty acids” value ([14]; 1 mg) was 40%. For the same molecule, the “mean reduction in plasma glucose concentration” value ([14]; 1 mg) was 0.47 mmol/L, the “reduction in mean hemoglobin level” value ([14]; 1 mg) was 0.55 mmol/L and the “fall in prevalence of impaired fasting glucose” value ([14]; 1.0 mg) was 59%. For the same molecule, the “mean increase in serum creatinine” value ([14]; 1.0 mg) was 8 µmol/L, the “patients with adverse events” value ([14]; 1.0 mg) was 60% and the increase in weight ([14]; 0.5 and 1 mg, 12 weeks) was “approximately 1 kg”. The “increase of ApoA-1” value ([14]; 1-mg dose) was 4%, the “reduction of ApoB” value ([14]; 1-mg dose) was 12% and the “reduction of ApoB/ApoA-1 ratio” value ([14]; 1-mg dose) was 16%. The “reduction of ApoCIII” value ([14]; 1-mg dose) was 25%, the Tmax ([15]; fasted state) was 1 h and the Tmax ([15]; fed state) was 2.5 h. The “pharmacokinetic interactions with glibenclamide or metformin” value [16] was “No pharmacokinetic interactions”, the “substrate of P-glycoprotein” value [17] was “not substrates of P-glycoprotein” and the “transport in Caco2 and MDCK-MDR1 monolayers” value [18] was “apparently transported by multidrug resistance protein 2”. The “free fatty acid utilization in adipose tissue, skeletal muscle, liver and heart” value ([19]; 3 micromol/kg/day for 3 weeks, insulin level-clamped) was “reduced”, the “glucose utilization in muscle and fat” value ([19]; 3 micromol/kg/day for 3 weeks) was “increased” and the “measures of whole-body insulin sensitivity” value ([19]; 3 micromol/kg/day orally, 3 or 4 weeks) was “consistently improved or normalized”. For the same molecule, the “normalization of total insulin” value ([19]; basal conditions, toward lean control) was 76%, the “normalization of C-peptide” value ([19]; basal conditions) was 61% and the “normalization of TGs” value ([19]; basal conditions) was 67%. For the same molecule, the “normalization of free fatty acids” value ([19]; basal conditions) was 15%, the “glucose infusion rate higher than required in lean controls” value ([19]; clamp conditions) was 13% and the “increase of rate of glucose infusion vs untreated rats” value ([19]; clamp conditions) was 7.6 fold. For the same molecule, the “normalization of C-peptide” value ([19]; clamp conditions) was 63%, the “normalization of TGs” value ([19]; clamp conditions) was 72% and the “normalization of free fatty acids” value ([19]; clamp conditions) was 70%. For the same molecule, the “normalization of total insulin” value ([19]; clamp conditions) was 82%, the “VLDL apolipoprotein (apo)CIII content” value ([19]; fasted obese Zucker rats) was “reduced” and the “increase of plasma TG clearance” value ([19]; fasted obese Zucker rats) was 490%. The “reduction of rate of hepatic TG production” value ([19]; fasted obese Zucker rats) was 47%, the “normalization of postprandial excursion in plasma glucose” value ([19]; glucose/TG (1.7/2.0 g/kg) test meal) was 80% and the “normalization of postprandial excursion in TGs” value ([19]; glucose/TG test meal) was 92%. For the same molecule, the “normalization of postprandial excursion in free fatty acids” value ([19]; glucose/TG test meal) was 75%, the “normalization of postprandial excursion in insulin” value ([19]; glucose/TG test meal) was 85% and the “potency relative to bezafibrate” value [20] was “approximately 10 fold”. For the same molecule, the “decrease of mean fasting plasma glucose, placebo-corrected” value (“decrease of mean fasting plasma glucose” for short) ([21]; 0.1 mg once daily) was 8.9 mg/dL, the “decrease of mean fasting plasma glucose” value ([21]; 0.5 mg) was 30.3 mg/dL and the “decrease of mean fasting plasma glucose” value ([21]; 1.0 mg) was 41.1 mg/dL. For the same molecule, the “greatest increase in serum HDL-cholesterol” value ([21]; 1 mg) was 15.0%, the “decrease of mean fasting plasma glucose” value ([21]; 2.0 mg) was 55.0 mg/dL and the “decrease of mean fasting plasma glucose” value ([21]; 3.0 mg) was 60.9 mg/dL. For the same molecule, the “greatest reduction of LDL-cholesterol” value ([21]; 3 mg) was 17.3%, the “greatest reduction of VLDL-cholesterol” value ([21]; 3 mg) was 52.5% and the “maximum reduction in free fatty acids” value ([21]; 2-mg dose) was 36.7%. For the same molecule, the “maximum reduction in serum TGs” value ([21]; 2-mg dose) was 41.0%, the “cholesterol efflux, % of the control level” value [22] was 156% and the “basal TG levels” value ([23]; 1 micromol/kg/day for 1 week) was “reduced”. For the same molecule, the “increase of glucose infusion rate during clamping” value ([23]; 1 micromol/kg/day for 1 week) was 29%, the “reduction of basal plasma insulin levels” value ([23]; 1 micromol/kg/day for 1 week) was 36% and the “increase of uptake of non-esterified fatty acids in white adipose tissue” value ([23]; 1 micromol/kg/day for 3 weeks, basal conditions) was 52%.
